Data published in patent publication US9695155B2, “Herbicidal substituted pyrimidinyloxy benzene compounds” (E. I. DU PONT DE NEMOURS AND COMPANY, priority 2013, dated 2017).

Columns and labels:
barnyardgrass [1] = experiment: Test A preemergence; assay type: in vivo, Echinochloa crus-galli; settings: for Plant response rating, Barnyardgrass: 125 g ai/ha, 0 to 100 scale where 0 is no effect and 100 is complete control; for Barnyardgrass plant response rating: 500 g ai/ha, 0 to 100 scale, 0 no effect, 100 complete control, approx. 10 days
Outline: (§1)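 Scoring: eye-based comparison with untreated controls, 0 for no effect through 100 for complete control, at about day 10. Treatments: directed soil spray preemergence; foliar spray postemergence on 2–10 cm plants at the one- to two-leaf stage. Medium: loam soil with sand.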

large (Lg) crabgrass [2] = experiment: Test A preemergence; assay type: in vivo, Digitaria sanguinalis; settings: for Plant response rating, Crabgrass, Large: 125 g ai/ha, 0 to 100 scale where 0 is no effect and 100 is complete control; for Crabgrass, Large plant response rating: 500 g ai/ha, 0 to 100 scale, 0 no effect, 100 complete control, approx. 10 days
Outline: as §1

giant foxtail [3] = experiment: Test A preemergence; assay type: in vivo, Setaria faberii; settings: for Plant response rating, Foxtail, Giant: 125 g ai/ha, 0 to 100 scale where 0 is no effect and 100 is complete control; for Foxtail, Giant plant response rating: 500 g ai/ha, 0 to 100 scale, 0 no effect, 100 complete control, approx. 10 days
Outline: as §1

morningglory [4] = experiment: Test A preemergence; assay type: in vivo, Ipomoea spp.; settings: for Plant response rating, Morningglory: 125 g ai/ha, 0 to 100 scale where 0 is no effect and 100 is complete control; for Morningglory plant response rating: 500 g ai/ha, 0 to 100 scale, 0 no effect, 100 complete control, approx. 10 days
Outline: as §1

pigweed [5] = experiment: Test A preemergence; assay type: in vivo, Amaranthus retroflexus; settings: for Plant response rating, Pigweed: 125 g ai/ha, 0 to 100 scale where 0 is no effect and 100 is complete control; for Pigweed plant response rating: 500 g ai/ha, 0 to 100 scale, 0 no effect, 100 complete control, approx. 10 days
Outline: as §1

velvetleaf [6] = experiment: Test A preemergence; assay type: in vivo, Abutilon theophrasti; settings: for Plant response rating, Velvetleaf: 125 g ai/ha, 0 to 100 scale where 0 is no effect and 100 is complete control; for Velvetleaf plant response rating: 500 g ai/ha, 0 to 100 scale, 0 no effect, 100 complete control, approx. 10 days
Outline: as §1

wheat [7] = experiment: Test A preemergence; assay type: in vivo, Triticum aestivum; settings: for Plant response rating, Wheat: 125 g ai/ha, 0 to 100 scale where 0 is no effect and 100 is complete control; for Wheat plant response rating: 500 g ai/ha, 0 to 100 scale, 0 no effect, 100 complete control, approx. 10 days
Outline: as §1

corn [8] = experiment: Test A preemergence; assay type: in vivo, Zea mays; settings: for Plant response rating, Corn: 125 g ai/ha, 0 to 100 scale where 0 is no effect and 100 is complete control; for Corn plant response rating: 500 g ai/ha, 0 to 100 scale, 0 no effect, 100 complete control, approx. 10 days
Outline: as §1

barnyardgrass [9] = experiment: Test A postemergence; assay type: in vivo, Echinochloa crus-galli
Outline: as §1

large (Lg) crabgrass [10] = experiment: Test A postemergence; assay type: in vivo, Digitaria sanguinalis
Outline: as §1

giant foxtail [11] = experiment: Test A postemergence; assay type: in vivo, Setaria faberii
Outline: as §1

morningglory [12] = experiment: Test A postemergence; assay type: in vivo, Ipomoea spp.
Outline: as §1

pigweed [13] = experiment: Test A postemergence; assay type: in vivo, Amaranthus retroflexus
Outline: as §1

velvetleaf [14] = experiment: Test A postemergence; assay type: in vivo, Abutilon theophrasti
Outline: as §1

wheat [15] = experiment: Test A postemergence; assay type: in vivo, Triticum aestivum
Outline: as §1

corn [16] = experiment: Test A postemergence; assay type: in vivo, Zea mays
Outline: as §1

rice = experiment: Test B flooded paddy test; assay type: in vivo, Oryza sativa; settings: Flood, 250 g ai/ha; 0 to 100 scale where 0 is no effect and 100 is complete control
Outline: (§2)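 Plants at 2-leaf stage; pots flooded to 3 cm above soil and compound applied directly into paddy water, depth held throughout. After 13 to 15 days in greenhouse, visual rating versus controls on 0 (no effect) to 100 (complete control) scale.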

sedge, umbrella = experiment: Test B flooded paddy test; assay type: in vivo, Cyperus difformis; settings: Flood, 250 g ai/ha; 0 to 100 scale where 0 is no effect and 100 is complete control
Outline: as §2

Heteranthera limosa = experiment: Test B flooded paddy test; assay type: in vivo; settings: Flood, 250 g ai/ha; 0 to 100 scale where 0 is no effect and 100 is complete control
Outline: as §2

barnyardgrass [17] = experiment: Test B flooded paddy test; assay type: in vivo, Echinochloa crus-galli; settings: Flood, 250 g ai/ha; 0 to 100 scale where 0 is no effect and 100 is complete control
Outline: as §2

[18] = 125 g ai/ha, 0 to 100 scale where 0 is no effect and 100 is complete control
[19] = 500 g ai/ha, 0 to 100 scale, 0 no effect, 100 complete control
[20] = 500 g ai/ha, 0 to 100 scale where 0 is no effect and 100 is complete control

SMILES	Plant response rating, Barnyardgrass (barnyardgrass [1])	Barnyardgrass plant response rating (barnyardgrass [1])	Plant response rating, Crabgrass, Large (large (Lg) crabgrass [2])	Crabgrass, Large plant response rating (large (Lg) crabgrass [2])	Plant response rating, Foxtail, Giant (giant foxtail [3])	Foxtail, Giant plant response rating (giant foxtail [3])	Plant response rating, Morningglory (morningglory [4])	Morningglory plant response rating (morningglory [4])	Plant response rating, Pigweed (pigweed [5])	Pigweed plant response rating (pigweed [5])	Plant response rating, Velvetleaf (velvetleaf [6])	Plant response rating, Wheat (wheat [7])	Plant response rating, Corn (corn [8])	Corn plant response rating (corn [8])	Plant response rating, Barnyardgrass (barnyardgrass [9]; [18])	Plant response rating, Crabgrass, Large (large (Lg) crabgrass [10]; [18])	Plant response rating, Foxtail, Giant (giant foxtail [11]; [18])	Plant response rating, Morningglory (morningglory [12]; [18])	Plant response rating, Pigweed (pigweed [13]; [18])	Plant response rating, Velvetleaf (velvetleaf [14]; [18])	further results
N#Cc1cccc(Oc2ncc(I)cn2)c1-n1cc(Br)cn1 [Compound 60]	0	70	40	100	20	90	0	0	30	100	0	0	0	0	20	10	20	10	50	50	Velvetleaf plant response rating (velvetleaf [6]): 40; Wheat plant response rating (wheat [7]): 0; Plant response rating, Barnyardgrass (barnyardgrass [9]; [19]): 50; Plant response rating, Crabgrass, Large (large (Lg) crabgrass [10]; [19]): 70; Plant response rating, Foxtail, Giant (giant foxtail [11]; [19]): 80; Plant response rating, Morningglory (morningglory [12]; [19]): 50; Plant response rating, Pigweed (pigweed [13]; [19]): 100; Plant response rating, Velvetleaf (velvetleaf [14]; [19]): 100; Plant response rating, Wheat (wheat [15]; [18]): 0; Plant response rating, Wheat (wheat [15]; [19]): 10; Plant response rating, Corn (corn [16]; [18]): 0; Plant response rating, Corn (corn [16]; [19]): 30; Plant response rating, Rice (rice): 0; Plant response rating, Sedge, Umbrella (sedge, umbrella): 0; Plant response rating, Ducksalad (Heteranthera limosa): 0; Plant response rating, Barnyardgrass (barnyardgrass [17]): 0
O=Cc1cccc(Oc2ncc(Cl)cn2)c1-n1cc(Br)cn1 [Compound 61]	0	20	0	20	0	0	0	0	0	30	0	0	0	0	0	0	0	0	0	20	Velvetleaf plant response rating (velvetleaf [6]): 0; Wheat plant response rating (wheat [7]): 0; Plant response rating, Barnyardgrass (barnyardgrass [9]; [19]): 0; Plant response rating, Crabgrass, Large (large (Lg) crabgrass [10]; [19]): 0; Plant response rating, Foxtail, Giant (giant foxtail [11]; [19]): 0; Plant response rating, Morningglory (morningglory [12]; [19]): 0; Plant response rating, Pigweed (pigweed [13]; [19]): 0; Plant response rating, Velvetleaf (velvetleaf [14]; [19]): 30; Plant response rating, Wheat (wheat [15]; [18]): 0; Plant response rating, Wheat (wheat [15]; [19]): 0; Plant response rating, Corn (corn [16]; [18]): 0; Plant response rating, Corn (corn [16]; [19]): 0; Plant response rating, Rice (rice): 0; Plant response rating, Sedge, Umbrella (sedge, umbrella): 0; Plant response rating, Ducksalad (Heteranthera limosa): 0; Plant response rating, Barnyardgrass (barnyardgrass [17]): 0
FC(F)(F)c1cccc(Oc2ncc(Cl)cn2)c1-n1cc(Br)cn1 [Compound 64]	60	100	90	90	90	90	0	20	90	100	40	0	0	70	60	80	80	60	100	100	Velvetleaf plant response rating (velvetleaf [6]): 90; Wheat plant response rating (wheat [7]): 30; Plant response rating, Barnyardgrass (barnyardgrass [9]; [19]): 100; Plant response rating, Crabgrass, Large (large (Lg) crabgrass [10]; [19]): 100; Plant response rating, Foxtail, Giant (giant foxtail [11]; [20]): 100; Plant response rating, Morningglory (morningglory [12]; [20]): 80; Plant response rating, Pigweed (pigweed [13]; [20]): 100; Plant response rating, Velvetleaf (velvetleaf [14]; [20]): 100; Plant response rating, Wheat (wheat [15]; [18]): 0; Plant response rating, Wheat (wheat [15]; [20]): 30; Plant response rating, Corn (corn [16]; [18]): 30; Plant response rating, Corn (corn [16]; [19]): 90; Plant response rating, Rice (rice): 0; Plant response rating, Sedge, Umbrella (sedge, umbrella): 80; Plant response rating, Ducksalad (Heteranthera limosa): 70; Plant response rating, Barnyardgrass (barnyardgrass [17]): 0
N#Cc1cccc(Oc2ncc(I)cn2)c1-n1cc(Cl)cn1 [Compound 75]	20	70	70	100	40	100	20	30	100	100	40	0	0	10	30	20	10	50	70	40	Velvetleaf plant response rating (velvetleaf [6]): 80; Wheat plant response rating (wheat [7]): 0; Plant response rating, Barnyardgrass (barnyardgrass [9]; [19]): 70; Plant response rating, Crabgrass, Large (large (Lg) crabgrass [10]; [19]): 70; Plant response rating, Foxtail, Giant (giant foxtail [11]; [20]): 80; Plant response rating, Morningglory (morningglory [12]; [20]): 60; Plant response rating, Pigweed (pigweed [13]; [20]): 100; Plant response rating, Velvetleaf (velvetleaf [14]; [20]): 70; Plant response rating, Wheat (wheat [15]; [18]): 0; Plant response rating, Wheat (wheat [15]; [20]): 0; Plant response rating, Corn (corn [16]; [18]): 0; Plant response rating, Corn (corn [16]; [19]): 40; Plant response rating, Rice (rice): 0; Plant response rating, Sedge, Umbrella (sedge, umbrella): 50; Plant response rating, Ducksalad (Heteranthera limosa): 60; Plant response rating, Barnyardgrass (barnyardgrass [17]): 0
O=Cc1cccc(Oc2ncc(F)cn2)c1-n1cc(Cl)cn1 [Compound 93]	0	0	0	30	0	0	0	0	0	30	0	0	0	0	0	0	0	0	0	0	Plant response rating, Barnyardgrass (barnyardgrass [9]; [20]): 0; Plant response rating, Crabgrass, Large (large (Lg) crabgrass [10]; [20]): 0; Plant response rating, Foxtail, Giant (giant foxtail [11]; [20]): 0; Plant response rating, Morningglory (morningglory [12]; [20]): 0; Plant response rating, Pigweed (pigweed [13]; [20]): 0; Plant response rating, Velvetleaf (velvetleaf [14]; [20]): 0; Plant response rating, Wheat (wheat [15]; [18]): 0; Plant response rating, Wheat (wheat [15]; [20]): 0; Plant response rating, Corn (corn [16]; [18]): 0; Plant response rating, Corn (corn [16]; [20]): 0; Plant response rating, Rice (rice): 0; Plant response rating, Sedge, Umbrella (sedge, umbrella): 0; Plant response rating, Ducksalad (Heteranthera limosa): 0; Plant response rating, Barnyardgrass (barnyardgrass [17]): 0
